According to PubChem BioAssay (NCI):
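48-hour exposure; five concentrations; linearly interpolated endpoints. TGI: concentration producing complete growth inhibition.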

Legend:
Assay in all cases: NCI tumour cell line growth inhibition, 48 h
[1] = system: CCRF-CEM leukemia
[2] = system: ACHN renal
[3] = system: DMS 273 small cell lung
[4] = system: HL-60(TB) leukemia
[5] = system: OVCAR-5 ovarian
[6] = system: HOP-18 NSCLC
[7] = system: TK-10 renal
[8] = system: DLD-1 colon
[9] = system: A549 NSCLC
[10] = system: SNB-78 CNS
[11] = system: A498 renal
[12] = system: UACC-62 melanoma
[13] = system: KM12 colon
[14] = system: SR leukemia
[15] = system: LXFL 529 NSCLC
[16] = system: HT29 colon
[17] = system: NCI-H23 lung
[18] = system: SK-MEL-2 melanoma
[19] = system: SN12C renal
[20] = system: UO-31 renal
[21] = system: K-562 leukemia
[22] = system: HOP-62 NSCLC
[23] = system: COLO 205 colon
[24] = system: MALME-3M melanoma
[25] = system: NCI-H460 lung
[26] = system: MOLT-4 leukemia
[27] = system: RPMI-8226 leukemia
[28] = system: M14 melanoma
[29] = system: HOP-92 NSCLC
[30] = system: OVCAR-4 ovarian
[31] = system: HCT-116 colon
[32] = system: UACC-257 melanoma
[33] = system: RXF 393 renal
[34] = system: U251 CNS
[35] = system: HCC-2998 colon
[36] = system: KM20L2 colon
[37] = system: HCT-15 colon
[38] = system: DMS 114 small cell lung
[39] = system: SF-539 CNS
[40] = system: OVCAR-8 ovarian
[41] = system: 786-0 renal
[42] = system: SF-268 CNS
[43] = system: EKVX NSCLC
[44] = system: SF-295 CNS
[45] = system: IGROV1 ovarian
[46] = system: M19-MEL melanoma
[47] = system: SNB-19 CNS
[48] = system: SK-MEL-28 melanoma
[49] = system: SK-MEL-5 melanoma
[50] = system: RXF-631 renal
[51] = system: SW-620 colon
[52] = system: NCI-H522 lung
[53] = system: OVCAR-3 ovarian
[54] = system: LOX IMVI melanoma
[55] = system: SK-OV-3 ovarian
[56] = system: SN12K1 renal
[57] = system: XF 498 CNS
[58] = system: CAKI-1 renal
[59] = system: NCI-H226 lung
[60] = system: P388 leukemia
[61] = system: P388/ADR leukemia
[62] = system: SNB-75 CNS
[63] = system: MCF7 breast
[64] = system: NCI/ADR-RES ovarian

O=C(O)CC[C@H](NC(=O)c1ccc(-n2nc3ccc(O)cc3nc2=O)cc1)C(=O)O
TGI [1]: > 100 µM | TGI [2]: > 100 µM | TGI [3]: > 100 µM | TGI [4]: > 100 µM | TGI [5]: > 100 µM | TGI [6]: > 100 µM | TGI [7]: > 100 µM | TGI [8]: > 100 µM | TGI [9]: > 100 µM | TGI [10]: > 100 µM | TGI [11]: > 100 µM | TGI [12]: > 100 µM | TGI [13]: > 100 µM | TGI [14]: > 100 µM | TGI [15]: > 100 µM | TGI [16]: > 100 µM | TGI [17]: > 100 µM | TGI [18]: > 100 µM | TGI [19]: > 100 µM | TGI [20]: > 100 µM | TGI [21]: > 100 µM | TGI [22]: > 100 µM | TGI [23]: > 100 µM | TGI [24]: > 100 µM | TGI [25]: > 100 µM | TGI [26]: > 100 µM | TGI [27]: > 100 µM | TGI [28]: > 100 µM | TGI [29]: > 100 µM | TGI [30]: > 100 µM | TGI [31]: > 100 µM | TGI [32]: > 100 µM | TGI [33]: > 100 µM | TGI [34]: > 100 µM | TGI [35]: > 100 µM | TGI [36]: > 100 µM | TGI [37]: > 100 µM | TGI [38]: > 100 µM | TGI [39]: > 100 µM | TGI [40]: > 100 µM | TGI [41]: > 100 µM | TGI [42]: > 100 µM | TGI [43]: > 100 µM | TGI [44]: > 100 µM | TGI [45]: > 100 µM | TGI [46]: > 100 µM | TGI [47]: > 100 µM | TGI [48]: > 100 µM | TGI [49]: > 100 µM | TGI [50]: > 100 µM | TGI [51]: > 100 µM | TGI [52]: > 100 µM | TGI [53]: > 100 µM

CC(=O)Oc1cc2c(cc1OC(C)=O)OCC(c1ccc(C)cc1)C2 (stereo not given)
TGI [1]: 26.8 µM | TGI [3]: 48.5 µM | TGI [4]: 6.56 µM | TGI [5]: 79 µM | TGI [54]: 37.7 µM | TGI [6]: 62.1 µM | TGI [8]: 45.9 µM | TGI [9]: 64.6 µM | TGI [10]: 55.5 µM | TGI [11]: 15.3 µM | TGI [12]: 21.3 µM | TGI [13]: 58.6 µM | TGI [16]: 73.6 µM | TGI [17]: 32.1 µM | TGI [18]: 34.1 µM | TGI [19]: 33.2 µM | TGI [20]: 38.3 µM | TGI [21]: 72.3 µM | TGI [22]: 44.4 µM | TGI [55]: 112 µM | TGI [23]: 41.8 µM | TGI [56]: 34 µM | TGI [24]: 32 µM | TGI [25]: 39.1 µM | TGI [26]: 54.6 µM | TGI [27]: 63.1 µM | TGI [29]: 29 µM | TGI [30]: 25.7 µM | TGI [57]: 32.2 µM | TGI [31]: 41.5 µM | TGI [32]: 40.3 µM | TGI [33]: 34.6 µM | TGI [34]: 38.8 µM | TGI [58]: 40.4 µM | TGI [35]: 16.4 µM | TGI [36]: 60.5 µM | TGI [37]: 40.7 µM | TGI [38]: 18.7 µM | TGI [39]: 32 µM | TGI [59]: 62.2 µM | TGI [40]: 68.6 µM | TGI [42]: 34.2 µM | TGI [60]: 20.8 µM | TGI [43]: 42.1 µM | TGI [61]: 11.4 µM | TGI [44]: 76.3 µM | TGI [45]: 42.9 µM | TGI [46]: 23.5 µM | TGI [47]: 124 µM | TGI [62]: 32.3 µM | TGI [48]: 39.3 µM | TGI [49]: 13.6 µM | TGI [51]: 47.3 µM | TGI [63]: 50.4 µM | TGI [52]: 6.86 µM | TGI [53]: 41 µM | TGI [64]: 58.3 µM
